BigSolDB 2.1

Nc1nnc[nH]1
solubility (mole fraction)
Settings	in 1,4-dioxane	in 2-butanone	in NMP	in acetone	in acetonitrile	in ethanol	in ethyl acetate	in isopropanol	in methanol	in n-propanol
283.15 K	–	0.00169	0.145	0.00476	0.00061	0.0112	0.00147	0.00423	0.0306	0.0057
285.65 K	–	0.00191	0.152	0.00515	0.000713	0.0126	0.00168	0.00515	0.0329	0.007
288.15 K	0.00325	0.00214	0.159	0.00564	0.000871	0.0143	0.0019	0.00634	0.0353	0.00835
290.65 K	0.0037	0.00242	0.166	0.00617	0.00106	0.0165	0.00213	0.00755	0.038	0.00983
293.15 K	0.00404	0.00272	0.173	0.00672	0.00127	0.0187	0.00237	0.00912	0.0408	0.0116
295.65 K	0.00449	0.00306	0.181	0.00727	0.00153	0.0213	0.00263	0.0111	0.0437	0.0135
298.15 K	0.00506	0.00344	0.189	0.00793	0.00185	0.0239	0.00286	0.0135	0.0471	0.0162
300.65 K	0.00569	0.00386	0.198	0.00869	0.00224	0.0269	0.00313	0.0161	0.0501	0.0189
303.15 K	0.0064	0.00438	0.206	0.0095	0.00273	0.0302	0.00345	0.0191	0.0537	0.022
305.65 K	0.00708	0.00497	0.215	0.0104	0.00327	0.0338	0.00383	0.0217	0.0574	0.0255
308.15 K	0.00785	0.0056	0.225	0.0114	0.00384	0.0378	0.00421	0.0259	0.0613	0.0293
310.65 K	0.00865	0.00626	0.234	0.0123	0.00453	0.042	0.00458	0.0304	0.0654	0.0339
313.15 K	0.00952	0.00698	0.244	0.0133	0.00528	0.0469	0.00503	0.035	0.0701	0.0388
315.65 K	0.0103	0.00768	0.255	0.0142	0.00614	0.0516	0.00549	0.0398	0.0745	0.0448
318.15 K	0.0114	0.00844	0.267	0.0152	0.00698	0.0569	0.00602	0.0453	0.0794	0.0512
